Assay results as given in article PMC9241644, “Evaluation of Novel Quorum Sensing Inhibitors Targeting Auto-Inducer 2 (AI-2) for the Control of Avian Pathogenic Escherichia coli Infections in Chickens” (Microbiology Spectrum, 2022).

Test: QSI-5 and SDM residue quantification in muscle, kidney and liver (LC-MS)
Type: in vivo, chickens
Method: The safety of QSI-5 and SDM was assessed by measuring the level of drug residue in the muscle, kidney, and liver using LC-MS (CCIC, MS&P Facility, OSU) as described before ([34]). As described above, chickens were administered with the optimized dose of QSI-5 (1 mg/L) and the therapeutic dose of SDM (495.323 mg/L) (0.05%) in drinking water daily for 7 days (starting from day 5 to day 11 of age). Tissue samples were collected individually from chickens treated with QSI-5 and SDM (five chickens per group) from experimental set up as described for floor trial at 2 DPLT, 5 DPLT, and […] (slaughter age). All samples were weighed and extracted at a 400 mg/mL ratio of tissue in the extraction solution (50:50 H2O: ACN). Samples were homogenized using a probe sonicator 20 times and centrifuged at 13,000 × g for 30 min. Sixty μL of the supernatant was transferred into glass vials and dried in a SpeedVac for 1.5 h, and then resuspended in 120 μL of 25:25:50 H2O:ACN:MeOH. Standard calibration, LC system, mass spectrometer, and drug target monitoring were performed as described above. Calibration standard curves for measuring the accumulation of QSI-5 and SDM in the kidney, liver, and muscle are shown in Fig. S6A and S6B.

Cc1ccc(CN2CCN(CCCc3ccccc3)CC2)cc1 [QSI-5]
0.0 ± 0.0 ppm: Drug accumulation, Kidney (ppm± SD) (2 DPLT) | Drug accumulation, Liver (ppm± SD) (2 DPLT) | Drug accumulation, Muscle (ppm± SD) (2 DPLT, drinking water 7 days (QSI-5 1 mg/L, SDM 495.323 mg/L)) | Drug accumulation, Kidney (ppm± SD) (5 DPLT) | Drug accumulation, Liver (ppm± SD) (5 DPLT) | Drug accumulation, Muscle (ppm± SD) (5 DPLT) | Drug accumulation, Kidney (ppm± SD) (35 DPLT (slaughter age)) | Drug accumulation, Liver (ppm± SD) (35 DPLT (slaughter age)) | Drug accumulation, Muscle (ppm± SD) (35 DPLT (slaughter age))
